Measurements taken from paper PMC7351026, “Serum Half-Lives for Short- and Long-Chain Perfluoroalkyl Acids after Ceasing Exposure from Drinking Water Contaminated by Firefighting Foam” (Environmental Health Perspectives, 2020).

Experiments:
Serum/water ratio = type: in vivo, human; details: median serum level of first samples (26 employees) divided by airport drinking-water level
Method: The ratio of serum and water concentration for each PFAS (serum/water ratio) was calculated based on median serum level in the first serum sample obtained from all 26 airport employees divided by the drinking-water concentration. This ratio is an indicator of PFAS accumulation in body.

[1] = PFAS levels in serum samples of airport employees (LC/MS/MS)
In short: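 LC/MS/MS quantification (BEH C18, 5 mM ammonium acetate water:methanol to methanol gradient) after protein precipitation of 25 μL serum with isotopically labeled internal standards, FBS-matrix calibration. Samples stored at −80°C, collected at monthly intervals from September 2018 and run together in a single batch.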

[2] = PFAS levels in urine samples of airport employees, specific-gravity adjusted (LC/MS/MS); type: in vivo, human
In short: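 50 μL urine mixed with methanol and acetonitrile containing isotope-labelled internal standards, shaken 30 min, centrifuged, then analysed by LC/MS/MS in negative ion mode. Concentrations specific-gravity adjusted; urine/serum ratios from paired samples of 17 employees, averaged over repeated samplings per employee.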

[3] = 1st sampling (September 2018), count 17
[4] = 2nd sampling (October 2018), count 17
[5] = 3rd sampling (November, 2018), count 17
[6] = 4th sampling (December 2018), count 16
[7] = 5th sampling (January 2019), count 16
[8] = first serum samples, all 26 airport employees
[9] = median of first serum samples, all 26 airport employees
[10] = 3rd sampling (November, 2018), count 16
[11] = 4th sampling (December 2018), count 14
[12] = 5th sampling (January 2019), count 12

With `O=C(O)C(F)(F)C(F)(F)C(F)(F)C(F)(F)C(F)(F)C(F)(F)F` [PFHpA, perfluoroheptanoic acid] the Serum/water ratio (Serum/water ratio) was 4.74, the “Serum PFAS level, 25 percentile” value [1, 3] was 0.45 and the “Serum PFAS level, 75 percentile” value [1, 3] was 1.1. For the same molecule, the “Serum PFAS level, Max” value [1, 3] was 2.2, the “Serum PFAS level, Median” value [1, 3] was 0.53 and the “Serum PFAS level, Min” value [1, 3] was 0.20. The “Serum PFAS level, 25 percentile” value [1, 4] was 0.18, the “Serum PFAS level, 75 percentile” value [1, 4] was 0.83 and the “Serum PFAS level, Max” value [1, 4] was 2.0. The “Serum PFAS level, Median” value [1, 4] was 0.33, the “Serum PFAS level, Min” value [1, 4] was 0.07 and the “Serum PFAS level, 25 percentile” value [1, 5] was 0.09. For the same molecule, the “Serum PFAS level, 75 percentile” value [1, 5] was 0.75, the “Serum PFAS level, Max” value [1, 5] was 2.0 and the “Serum PFAS level, Median” value [1, 5] was 0.27. The “Serum PFAS level, Min” value [1, 5] was 0.08, the “Serum PFAS level, 25 percentile” value [1, 6] was 0.09 and the “Serum PFAS level, 75 percentile” value [1, 6] was 0.72. The “Serum PFAS level, Max” value [1, 6] was 1.8, the “Serum PFAS level, Median” value [1, 6] was 0.15 and the “Serum PFAS level, Min” value [1, 6] was 0.05. The “Serum PFAS level, 25 percentile” value [1, 7] was “< LOD”, the “Serum PFAS level, 75 percentile” value [1, 7] was 0.50 and the “Serum PFAS level, Max” value [1, 7] was 1.4. For the same molecule, the “Serum PFAS level, Median” value [1, 7] was 0.10, the “Serum PFAS level, Min” value [1, 7] was “< LOD” and the “Serum level in the first samples, median (range)” value ([1]; all 26 airport employees) was 0.46 (0.07–2.2) ng/mL. For the same molecule, the “PFAS in first serum sample, median (range)” value ([1]; employees participated in first blood sampling and repeated blood and urine sampling, N=17) was 0.53 (0.20–2.2) ng/mL, the “PFAS in first serum sample, median (range)” value ([1]; employees participated in first blood sampling only, N=9, 11-14 d after end of exposure) was 0.17 (0.07–1.3) ng/mL and the “Initial serum PFAS level, max” value ([1]; females (N=7)) was 2.2 ng/mL. For the same molecule, the “Initial serum PFAS level, median” value ([1]; females (N=7)) was 0.46 ng/mL, the “Initial serum PFAS level, min” value ([1]; females (N=7)) was 0.08 ng/mL and the “Relative composition of PFAS in serum, molar concentration basis” value [1, 8] was 0.5%. The “Relative composition of PFAS in serum, weight basis” value [1, 8] was 0.4%, the “Initial serum PFAS level, Max” value ([1]; males (N=19)) was 2.0 ng/mL and the “Initial serum PFAS level, Min” value ([1]; males (N=19)) was 0.07 ng/mL. The “Initial serum PFAS level, median” value ([1]; males (N=19)) was 0.45 ng/mL, the “Serum concentration, molar basis” value [1, 9] was 0.0013 and the “Serum concentration, weight basis” value [1, 9] was 0.46. For the same molecule, the “Specific gravity adjusted urinary level, 25 percentile” value [2, 4] was 0.02 ng/mL, the “Specific gravity adjusted urinary level, 75 percentile” value [2, 4] was 0.04 ng/mL and the “Specific gravity adjusted urinary level, Max” value [2, 4] was 0.05 ng/mL. For the same molecule, the “Specific gravity adjusted urinary level, Median” value [2, 4] was 0.03 ng/mL, the “Specific gravity adjusted urinary level, Min” value [2, 4] was “< LOD” and the “Specific gravity adjusted urinary level, 25 percentile” value [2, 10] was 0.01 ng/mL. For the same molecule, the “Specific gravity adjusted urinary level, 75 percentile” value [2, 10] was 0.03 ng/mL, the “Specific gravity adjusted urinary level, Max” value [2, 10] was 0.08 ng/mL and the “Specific gravity adjusted urinary level, Median” value [2, 10] was 0.02 ng/mL. The “Specific gravity adjusted urinary level, Min” value [2, 10] was “< LOD”, the “Specific gravity adjusted urinary level, 25 percentile” value [2, 11] was 0.01 ng/mL and the “Specific gravity adjusted urinary level, 75 percentile” value [2, 11] was 0.03 ng/mL. For the same molecule, the “Specific gravity adjusted urinary level, Max” value [2, 11] was 0.06 ng/mL, the “Specific gravity adjusted urinary level, Median” value [2, 11] was 0.02 ng/mL and the “Specific gravity adjusted urinary level, Min” value [2, 11] was “< LOD”. The “Specific gravity adjusted urinary level, 25 percentile” value [2, 12] was “< LOD”, the “Specific gravity adjusted urinary level, 75 percentile” value [2, 12] was 0.03 ng/mL and the “Specific gravity adjusted urinary level, Max” value [2, 12] was 0.06 ng/mL. The “Specific gravity adjusted urinary level, Median” value [2, 12] was 0.02 ng/mL, the “Specific gravity adjusted urinary level, Min” value [2, 12] was “< LOD” and the “Specific gravity adjusted urine level, median (range)” value ([2]; second to fifth samplings, 17 airport employees) was 0.025 ( <LOD –0.080) ng/mL.
